Laboratory results from US20190169562A1, “SCREENING OF IMMUNO-MODULATORY THERAPIES” (zPredicta, Inc., priority 2016, published 2019).

System: malignant plasma cells
Experiment: bone marrow aspirates from multiple myeloma patients cultured in r-Bone and treated with pomalidomide
Format: cell-based, human
Conditions: patient bone marrow (n=10) in r-Bone, FIG. 4
Protocol: This example tested bone marrow aspirated from patients with multiple myeloma (n=10) were cultured in r-Bone system and treated with pomalidomide.

## Nc1cccc2c1C(=O)N(C1CCC(=O)NC1=O)C2=O (stereo not shown) [pomalidomide, Pomalidomide]
  elimination of malignant plasma cells: eliminated malignant plasma cells in a dose dependent manner
